Measurements published in PubChem BioAssay AID1919005 (Molecular Pharmacology Branch, DTP, NCI, 2023).

Tested on: 855422-203-R-J1-PDC complex spheroid growth
Assay: Anticancer human tumor 855422-203-R-J1-PDC patient-derived bladder carcinoma cell line growth inhibition [AhR]
Details: for IC50: curve of first compound; for viability, T/C: stronger effect = lower value
Method in brief: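 Spheroids combined tumor cells with HUVEC endothelial cells and human MSCs as stroma. AhR antagonists were paired with standard or investigational drugs, each dosed in half-log steps down from near clinical Cmax, or from 10 microM where Cmax was unknown.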

[1] = second compound 0.1 µM, first compound 0.0316 µM
[2] = second compound 0.1 µM, first compound 0.1 µM
[3] = second compound 0.316 µM, first compound 0.0316 µM
[4] = second compound 0.316 µM, first compound 0.1 µM
[5] = second compound 1 µM, first compound 0.0316 µM
[6] = second compound 1 µM, first compound 0.1 µM
[7] = second compound 3.16 µM, first compound 0.0316 µM
[8] = second compound 3.16 µM, first compound 0.1 µM
[9] = second compound 10 µM, first compound 0.0316 µM
[10] = second compound 10 µM, first compound 0.1 µM
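Further: spheroids exposed to agents for seven days before readout.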
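Wherever viability, T/C is given: percent of DMSO vehicle control luminescence viability.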

## CC[C@@]1(O)C(=O)OCc2c1cc1n(c2=O)Cc2cc3c(CN(C)C)c(O)ccc3nc2-1 + Cc1cncc(-c2nc(NCCc3c[nH]c4ccccc34)c3ncn(C(C)C)c3n2)c1
Second compound 0.1 µM
  IC50: 37.8 nM
Second compound 0.316 µM
  IC50: 33.7 nM
Second compound 1 µM
  IC50: 25.7 nM
Second compound 3.16 µM
  IC50: 18.1 nM
Second compound 10 µM
  IC50: < 0.316 nM
Second compound 0.1 µM, first compound 0.000316 µM
  viability, T/C: 95.4%
Second compound 0.1 µM, first compound 0.001 µM
  viability, T/C: 85.9%
Second compound 0.1 µM, first compound 0.00316 µM
  viability, T/C: 103%
Second compound 0.1 µM, first compound 0.01 µM
  viability, T/C: 91.5%
[1]
  viability, T/C: 56.8%
[2]
  viability, T/C: 13.1%
Second compound 0.316 µM, first compound 0.000316 µM
  viability, T/C: 89.6%
Second compound 0.316 µM, first compound 0.001 µM
  viability, T/C: 87.1%
Second compound 0.316 µM, first compound 0.00316 µM
  viability, T/C: 93.6%
Second compound 0.316 µM, first compound 0.01 µM
  viability, T/C: 89.6%
[3]
  viability, T/C: 52.2%
[4]
  viability, T/C: 11.6%
Second compound 1 µM, first compound 0.000316 µM
  viability, T/C: 91.4%
Second compound 1 µM, first compound 0.001 µM
  viability, T/C: 90.6%
Second compound 1 µM, first compound 0.00316 µM
  viability, T/C: 80.8%
Second compound 1 µM, first compound 0.01 µM
  viability, T/C: 78.1%
[5]
  viability, T/C: 43.6%
[6]
  viability, T/C: 12%
Second compound 3.16 µM, first compound 0.000316 µM
  viability, T/C: 77.3%
Second compound 3.16 µM, first compound 0.001 µM
  viability, T/C: 83.7%
Second compound 3.16 µM, first compound 0.00316 µM
  viability, T/C: 74.3%
Second compound 3.16 µM, first compound 0.01 µM
  viability, T/C: 68.5%
[7]
  viability, T/C: 33%
[8]
  viability, T/C: 11.7%
Second compound 10 µM, first compound 0.000316 µM
  viability, T/C: 13.4%
Second compound 10 µM, first compound 0.001 µM
  viability, T/C: 8.89%
Second compound 10 µM, first compound 0.00316 µM
  viability, T/C: 4.65%
Second compound 10 µM, first compound 0.01 µM
  viability, T/C: 6.18%
[9]
  viability, T/C: 3.7%
[10]
  viability, T/C: 1.73%

## CCc1c2c(nc3ccc(O)cc13)-c1cc3c(c(=O)n1C2)COC(=O)[C@]3(O)CC + Cc1cncc(-c2nc(NCCc3c[nH]c4ccccc34)c3ncn(C(C)C)c3n2)c1
Second compound 0.1 µM
  IC50: 2.9 nM
Second compound 0.316 µM
  IC50: 1.98 nM
Second compound 1 µM
  IC50: 1.81 nM
Second compound 3.16 µM
  IC50: 1.09 nM
Second compound 10 µM
  IC50: < 0.949 nM
Second compound 0.1 µM, first compound 0.000949 µM
  viability, T/C: 99.6%
Second compound 0.1 µM, first compound 0.003 µM
  viability, T/C: 48.6%
Second compound 0.1 µM, first compound 0.00949 µM
  viability, T/C: 12.1%
Second compound 0.1 µM, first compound 0.03 µM
  viability, T/C: 9.21%
Second compound 0.1 µM, first compound 0.0949 µM
  viability, T/C: 6.44%
Second compound 0.1 µM, first compound 0.3 µM
  viability, T/C: 3.75%
Second compound 0.316 µM, first compound 0.000949 µM
  viability, T/C: 76.5%
Second compound 0.316 µM, first compound 0.003 µM
  viability, T/C: 35%
Second compound 0.316 µM, first compound 0.00949 µM
  viability, T/C: 9.9%
Second compound 0.316 µM, first compound 0.03 µM
  viability, T/C: 10%
Second compound 0.316 µM, first compound 0.0949 µM
  viability, T/C: 6.31%
Second compound 0.316 µM, first compound 0.3 µM
  viability, T/C: 4.22%
Second compound 1 µM, first compound 0.000949 µM
  viability, T/C: 72.3%
Second compound 1 µM, first compound 0.003 µM
  viability, T/C: 32.6%
Second compound 1 µM, first compound 0.00949 µM
  viability, T/C: 11.4%
Second compound 1 µM, first compound 0.03 µM
  viability, T/C: 9.74%
Second compound 1 µM, first compound 0.0949 µM
  viability, T/C: 6.96%
Second compound 1 µM, first compound 0.3 µM
  viability, T/C: 4.13%
Second compound 3.16 µM, first compound 0.000949 µM
  viability, T/C: 54.2%
Second compound 3.16 µM, first compound 0.003 µM
  viability, T/C: 22.2%
Second compound 3.16 µM, first compound 0.00949 µM
  viability, T/C: 10.7%
Second compound 3.16 µM, first compound 0.03 µM
  viability, T/C: 4.55%
Second compound 3.16 µM, first compound 0.0949 µM
  viability, T/C: 5.79%
Second compound 3.16 µM, first compound 0.3 µM
  viability, T/C: 3.2%
Second compound 10 µM, first compound 0.000949 µM
  viability, T/C: 3.26%
Second compound 10 µM, first compound 0.003 µM
  viability, T/C: 2.2%
Second compound 10 µM, first compound 0.00949 µM
  viability, T/C: 3.05%
Second compound 10 µM, first compound 0.03 µM
  viability, T/C: 0.55%
Second compound 10 µM, first compound 0.0949 µM
  viability, T/C: 1.43%
Second compound 10 µM, first compound 0.3 µM
  viability, T/C: 1.83%

## Nc1ccn(C2OC(CO)C(O)C2(F)F)c(=O)n1 (stereo not given) + Cc1cncc(-c2nc(NCCc3c[nH]c4ccccc34)c3ncn(C(C)C)c3n2)c1
Second compound 0.1 µM
  IC50: 48.3 nM
Second compound 0.316 µM
  IC50: 46.3 nM
Second compound 1 µM
  IC50: 42.5 nM
Second compound 3.16 µM
  IC50: 59.5 nM
Second compound 10 µM
  IC50: < 31.6 nM
[1]
  viability, T/C: 65.8%
[2]
  viability, T/C: 22.5%
Second compound 0.1 µM, first compound 0.316 µM
  viability, T/C: 15.1%
Second compound 0.1 µM, first compound 1 µM
  viability, T/C: 12.1%
Second compound 0.1 µM, first compound 3.16 µM
  viability, T/C: 10.7%
Second compound 0.1 µM, first compound 10 µM
  viability, T/C: 7.08%
[3]
  viability, T/C: 61.6%
[4]
  viability, T/C: 26.9%
Second compound 0.316 µM, first compound 0.316 µM
  viability, T/C: 12.9%
Second compound 0.316 µM, first compound 1 µM
  viability, T/C: 12.8%
Second compound 0.316 µM, first compound 3.16 µM
  viability, T/C: 10.2%
Second compound 0.316 µM, first compound 10 µM
  viability, T/C: 7.37%
[5]
  viability, T/C: 59.6%
[6]
  viability, T/C: 22.8%
Second compound 1 µM, first compound 0.316 µM
  viability, T/C: 13.5%
Second compound 1 µM, first compound 1 µM
  viability, T/C: 9.62%
Second compound 1 µM, first compound 3.16 µM
  viability, T/C: 10.7%
Second compound 1 µM, first compound 10 µM
  viability, T/C: 8.49%
[7]
  viability, T/C: 65.2%
[8]
  viability, T/C: 37.5%
Second compound 3.16 µM, first compound 0.316 µM
  viability, T/C: 16.2%
Second compound 3.16 µM, first compound 1 µM
  viability, T/C: 8.68%
Second compound 3.16 µM, first compound 3.16 µM
  viability, T/C: 11.6%
Second compound 3.16 µM, first compound 10 µM
  viability, T/C: 9.18%
[9]
  viability, T/C: 6.33%
[10]
  viability, T/C: 1.93%
Second compound 10 µM, first compound 0.316 µM
  viability, T/C: 1.21%
Second compound 10 µM, first compound 1 µM
  viability, T/C: 0.96%
Second compound 10 µM, first compound 3.16 µM
  viability, T/C: 2.26%
Second compound 10 µM, first compound 10 µM
  viability, T/C: 2.09%
